# Data taken from US20190307908A1, “NANOEMULSION AGENTS FOR ULTRASOUND DIAGNOSTIC AND THERAPY” (University of Washington, priority 2018, published 2019).
# Columns and labels:
# [1] = test system: rat spinal cord; assay: ultrasound contrast imaging in a rat spinal cord model; type: in vivo, Sprague-Dawley rat; settings: bolus via tail vein, 15 MHz linear array, harmonic imaging
# Protocol: Ouzo-synthesized droplets were used as an ultrasound contrast agent in a rat spinal cord model (FIGS. 7A-7D). Surgical procedures were performed according to approved institutional animal care and use committee (IACUC) protocol following all appropriate guidelines from the university's Animal Welfare Assurance (A3464-01) as well as the NIH Office of Laboratory Animal Welfare (OLAW). A laminectomy was performed to remove the top surface of spine vertebrae, exposing the spinal cord. A bolus injection of perfluorobutane droplets ([…]) with a mean diameter of 182 nm was administered via tail vein and imaged using a 15 MHz linear array ultrasound transducer. […] Harmonic imaging was necessary to suppress intrinsic linear signals from this tissue model and to highlight the non-linear signals that are generated from bubble oscillations.
# Surgical procedures were performed according to approved institutional animal care and use committee (IACUC) protocol following all appropriate guidelines from the university's Animal Welfare Assurance (A3464-01) as well as the NIH Office of Laboratory Animal Welfare (OLAW). A 0.2 ml bolus injection of perfluorobutane droplets diluted to approximately 10^6 droplet/ml was injected via tail vein in an anesthetized female Sprague-Dawley rat. An ultrasound imaging window was made by performing a laminectomy to expose the spinal cord between T6 and T10. […]
# [2] = maximum PFC dissolved in ethanol; type: physicochemical; settings: in ethanol (co-solvent)
# Protocol: PFC ouzo droplets were synthesized by first dissolving a PFC into ethanol (co-solvent). A maximum of approximately 2.0% perfluorohexane (C6F14, TBoiling=56° C.), 2.3% perfluoropentane (C5F12, TBoiling=29° C.), 2.5% perfluorobutane (C4F10, TBoiling=2° C.), and 2.7% perfluoropropane ([…], TBoiling=−37° C.) by volume could be dissolved in ethanol. In the ethanol phase, a 20:1 mole ratio of dipalmitoylphosphatidylcholine (DPPC) and N-(Methylpolyoxyethylene oxycarbonyl)-1,2-distearoyl-sn-glycero-3-phosphoethanolamine sodium salt (DSPE-PEG 2K) lipids were also dissolved. The total lipid concentration was varied from 0.10 mg/ml to 1.82 mg/ml depending on the volume of perfluorocarbon that was used. […] However, lower concentration lipids solutions were not used to ensure ample lipids were in solution to stabilize the droplet interface. […] When an aqueous solution (solvent) prepared at a ratio of 7:2:1 water/propylene glycol/glycerol is added to the PFC/ethanol solution, the PFC oil phase quickly loses solubility resulting in the spontaneous nucleation of stable droplets (FIG. 2). Since PFCs are known to have very poor solubility in water, the greater the water content relative to ethanol, the lower the PFC solubility is in the final mixed solvent. The inclusion of glycerol and propylene glycol is optional for droplet nucleation. For example, PFC emulsions can also be generated in the absence of any stabilizer (FIGS. 8 and 9). However, glycerol and propylene glycol are commonly used along with lipid mixtures to improve microbubble stability. Here, glycerol and propylene glycol were also included in the ouzo droplet formulation to make the agent composition analogous to microbubbles and to increase stability.
# The lipid-ethanol stock solution was then divided as needed. Using a stir plate, PFCs were then dissolved in the lipid-ethanol solution until it was fully saturated. For liquid PFCs (i.e. PFH and PFP), the PFC oil was incrementally added to the stirred ethanol solution until a small droplet of PFC formed in solution. The solution was then removed from the stir plate and allowed to rest at room temperature for approximately 20 minutes, enabling excess PFC to fall to the bottom of the container. For gaseous PFCs (i.e. PFB and OFP), PFC gas was bubbled into a sealed glass vial with the ethanol solution at a pressure of 1.5-2.0 PSI while on ice. It was bubbled through for a minimum of 2 minutes and purged 3 times to ensure the headspace was filled with gaseous PFC. Then, the PFC-lipid-ethanol solution was pipetted into a clean glass vial and diluted as needed using additional lipid-ethanol solution to achieve the desired PFC in ethanol saturation percentage. […]
maximum that could be dissolved in ethanol [2],SMILES,ultrasound contrast enhancement after injection [1]
approximately 2.0 % by volume,FC(F)(F)C(F)(F)C(F)(F)C(F)(F)C(F)(F)C(F)(F)F [perfluorohexane],nearly zero contrast enhancement
~2.7 % by volume,FC(F)(F)C(F)(F)C(F)(F)F [perfluoropropane],
~2.3 % by volume,FC(F)(F)C(F)(F)C(F)(F)C(F)(F)C(F)(F)F [perfluoropentane],nearly zero contrast enhancement
~2.5 % by volume,FC(F)(F)C(F)(F)C(F)(F)C(F)(F)F [perfluorobutane],
